Where “and” joins values, the source holds several entries; their conditions need not be identical. Identical values can stand only once. Blank lines part the entries; values can stand above or below the compound they belong to.
Assays:
[1] = target: cGMP-specific 3',5'-cyclic phosphodiesterase (Homo sapiens, UniProt O76074); experiment: Inhibition of PDE5 (unknown origin)
[2] = target: GABA-A receptor; anion channel; experiment: Displacement of [3H]flunitrazepam from GABAA (unknown origin ) receptor by radioligand binding assay; assay type: protein-complex assay, Homo sapiens
[3] = target: T1, Gamma-aminobutyric acid receptor subunit alpha-1 (Homo sapiens, UniProt P14867); experiment: Binding affinity to human recombinant GABAA alpha1 receptor assessed as inhibition constant incubated for 1 hrs by liquid scintillation counting analysis
T1 sequence (P14867 whole entry): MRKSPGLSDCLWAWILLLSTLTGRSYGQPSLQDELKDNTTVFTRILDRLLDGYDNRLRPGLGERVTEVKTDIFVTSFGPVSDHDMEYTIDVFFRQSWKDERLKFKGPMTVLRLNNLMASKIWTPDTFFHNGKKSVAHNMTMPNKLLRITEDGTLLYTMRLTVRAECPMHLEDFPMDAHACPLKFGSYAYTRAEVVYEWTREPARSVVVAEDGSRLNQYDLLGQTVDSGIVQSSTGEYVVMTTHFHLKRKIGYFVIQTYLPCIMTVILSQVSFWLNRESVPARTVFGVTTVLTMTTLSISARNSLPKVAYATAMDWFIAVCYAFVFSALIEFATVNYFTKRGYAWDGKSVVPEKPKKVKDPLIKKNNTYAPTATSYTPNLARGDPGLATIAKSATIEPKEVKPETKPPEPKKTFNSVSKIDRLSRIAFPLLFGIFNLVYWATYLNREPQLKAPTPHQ

[4] = target: T2, Gamma-aminobutyric acid receptor subunit alpha-2 (Homo sapiens, UniProt P47869); experiment: Binding affinity to human recombinant GABAA alpha2 receptor assessed as inhibition constant incubated for 1 hrs by liquid scintillation counting analysis
T2 sequence (P47869 whole entry): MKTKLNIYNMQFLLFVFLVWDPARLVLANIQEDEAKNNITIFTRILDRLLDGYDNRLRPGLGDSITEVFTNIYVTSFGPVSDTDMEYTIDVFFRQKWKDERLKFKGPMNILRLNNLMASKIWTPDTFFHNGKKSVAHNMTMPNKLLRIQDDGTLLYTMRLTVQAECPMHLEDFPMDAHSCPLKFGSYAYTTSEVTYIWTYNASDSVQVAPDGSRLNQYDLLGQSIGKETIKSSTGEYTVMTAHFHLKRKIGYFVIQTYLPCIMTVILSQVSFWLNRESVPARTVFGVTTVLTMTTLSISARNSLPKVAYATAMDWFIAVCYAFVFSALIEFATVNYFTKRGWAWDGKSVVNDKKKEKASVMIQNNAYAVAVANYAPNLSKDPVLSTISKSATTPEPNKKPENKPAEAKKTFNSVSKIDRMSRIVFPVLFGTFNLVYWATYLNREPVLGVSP

[5] = target: T3, Gamma-aminobutyric acid receptor subunit alpha-3 (Homo sapiens, UniProt P34903); experiment: Binding affinity to human recombinant GABAA alpha3 receptor assessed as inhibition constant incubated for 1 hrs by liquid scintillation counting analysis
T3 sequence (P34903 whole entry): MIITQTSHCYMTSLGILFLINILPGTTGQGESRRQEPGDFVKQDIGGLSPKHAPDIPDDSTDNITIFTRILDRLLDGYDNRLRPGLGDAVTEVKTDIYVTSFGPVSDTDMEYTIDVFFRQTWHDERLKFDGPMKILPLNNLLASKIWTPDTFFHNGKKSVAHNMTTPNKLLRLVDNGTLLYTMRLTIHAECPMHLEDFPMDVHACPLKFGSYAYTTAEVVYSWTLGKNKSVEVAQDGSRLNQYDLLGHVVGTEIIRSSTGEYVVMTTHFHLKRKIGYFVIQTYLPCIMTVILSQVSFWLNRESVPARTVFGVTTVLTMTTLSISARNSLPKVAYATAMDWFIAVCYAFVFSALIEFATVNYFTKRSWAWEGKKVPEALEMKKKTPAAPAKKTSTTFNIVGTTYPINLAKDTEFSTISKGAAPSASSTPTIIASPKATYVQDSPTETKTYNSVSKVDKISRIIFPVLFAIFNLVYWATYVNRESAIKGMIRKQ

[6] = target: T4, Gamma-aminobutyric acid receptor subunit alpha-5 (Homo sapiens, UniProt P31644); experiment: Binding affinity to human recombinant GABAA alpha5 receptor assessed as inhibition constant incubated for 1 hrs by liquid scintillation counting analysis
T4 sequence (P31644 whole entry): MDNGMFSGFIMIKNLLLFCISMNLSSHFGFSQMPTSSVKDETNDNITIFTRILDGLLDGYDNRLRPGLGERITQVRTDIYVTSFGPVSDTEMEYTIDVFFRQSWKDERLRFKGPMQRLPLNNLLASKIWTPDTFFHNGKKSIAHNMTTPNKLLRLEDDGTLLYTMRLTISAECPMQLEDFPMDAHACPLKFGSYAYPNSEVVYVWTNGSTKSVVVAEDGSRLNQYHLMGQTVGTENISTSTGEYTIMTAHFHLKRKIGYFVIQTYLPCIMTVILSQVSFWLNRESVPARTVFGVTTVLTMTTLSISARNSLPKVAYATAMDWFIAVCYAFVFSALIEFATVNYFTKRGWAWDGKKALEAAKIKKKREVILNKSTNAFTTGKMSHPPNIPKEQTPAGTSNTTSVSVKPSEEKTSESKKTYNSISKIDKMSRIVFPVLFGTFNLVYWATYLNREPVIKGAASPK

[7] = target: Gamma-aminobutyric acid receptor subunit alpha-6 (Homo sapiens, UniProt Q16445); experiment: Binding affinity to human recombinant GABAA alpha6 receptor assessed as inhibition constant incubated for 1 hrs by liquid scintillation counting analysis
Gamma-aminobutyric acid receptor subunit alpha-6, sequence (Q16445 whole entry): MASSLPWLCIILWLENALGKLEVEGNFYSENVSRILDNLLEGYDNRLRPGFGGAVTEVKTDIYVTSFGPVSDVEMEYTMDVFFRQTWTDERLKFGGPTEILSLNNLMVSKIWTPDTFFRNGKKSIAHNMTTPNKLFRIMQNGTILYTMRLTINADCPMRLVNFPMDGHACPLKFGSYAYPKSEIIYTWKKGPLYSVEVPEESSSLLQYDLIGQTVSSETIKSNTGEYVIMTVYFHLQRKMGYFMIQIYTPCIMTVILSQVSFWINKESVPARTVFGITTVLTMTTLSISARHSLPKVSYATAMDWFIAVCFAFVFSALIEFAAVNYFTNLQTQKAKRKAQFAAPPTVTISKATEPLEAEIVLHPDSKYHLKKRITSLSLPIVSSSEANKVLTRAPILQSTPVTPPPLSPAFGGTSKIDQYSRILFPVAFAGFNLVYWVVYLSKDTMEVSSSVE

Acetylcholinesterase = Acetylcholinesterase (Homo sapiens, UniProt P22303); experiment: Inhibition of AChE (unknown origin)
Acetylcholinesterase, sequence (P22303 whole entry): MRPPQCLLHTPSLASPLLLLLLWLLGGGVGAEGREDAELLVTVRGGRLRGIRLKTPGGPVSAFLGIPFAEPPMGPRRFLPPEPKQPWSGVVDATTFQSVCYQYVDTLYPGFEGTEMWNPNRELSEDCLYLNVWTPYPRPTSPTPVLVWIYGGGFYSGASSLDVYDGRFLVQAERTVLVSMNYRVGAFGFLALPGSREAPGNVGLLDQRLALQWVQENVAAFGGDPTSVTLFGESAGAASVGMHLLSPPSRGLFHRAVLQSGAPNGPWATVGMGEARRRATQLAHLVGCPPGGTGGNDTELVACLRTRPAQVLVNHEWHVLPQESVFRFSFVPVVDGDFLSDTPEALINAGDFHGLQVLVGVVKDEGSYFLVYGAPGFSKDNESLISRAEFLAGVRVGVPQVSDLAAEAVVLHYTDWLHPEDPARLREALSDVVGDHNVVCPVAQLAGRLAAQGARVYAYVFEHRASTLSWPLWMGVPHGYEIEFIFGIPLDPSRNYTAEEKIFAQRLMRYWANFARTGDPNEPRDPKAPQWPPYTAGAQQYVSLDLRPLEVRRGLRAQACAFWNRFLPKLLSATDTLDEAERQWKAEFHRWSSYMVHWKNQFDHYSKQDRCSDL

Cholinesterase = Cholinesterase (Homo sapiens, UniProt P06276); experiment: Inhibition of BuChE (unknown origin)
Cholinesterase, sequence (P06276 whole entry): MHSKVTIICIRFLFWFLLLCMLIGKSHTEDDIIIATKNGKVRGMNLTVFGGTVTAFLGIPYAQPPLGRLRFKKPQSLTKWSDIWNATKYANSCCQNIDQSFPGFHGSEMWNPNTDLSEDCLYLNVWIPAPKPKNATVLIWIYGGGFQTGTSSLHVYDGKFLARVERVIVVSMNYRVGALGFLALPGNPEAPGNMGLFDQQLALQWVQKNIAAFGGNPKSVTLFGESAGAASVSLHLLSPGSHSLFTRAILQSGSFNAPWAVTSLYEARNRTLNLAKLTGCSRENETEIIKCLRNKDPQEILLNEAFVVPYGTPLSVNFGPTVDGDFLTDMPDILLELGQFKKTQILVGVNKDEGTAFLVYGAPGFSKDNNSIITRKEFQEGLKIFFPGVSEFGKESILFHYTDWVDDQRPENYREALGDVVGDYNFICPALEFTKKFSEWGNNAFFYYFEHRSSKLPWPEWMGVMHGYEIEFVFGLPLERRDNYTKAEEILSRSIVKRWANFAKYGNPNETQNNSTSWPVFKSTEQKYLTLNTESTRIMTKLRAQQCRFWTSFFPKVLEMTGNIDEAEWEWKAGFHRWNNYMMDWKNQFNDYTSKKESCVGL

IC50 [1]: 3 nM
Compound: COc1ccc(C2c3[nH]c4ccccc4c3CC3C(=O)N(C4CCCCC4)C(=O)N32)cc1 (stereo unspecified)

Compound: COC(=O)c1cc2c(cn1)[nH]c1ccc(NCc3ccccc3)cc12
IC50 [2]: 4 nM | Ki [3]: 5 nM | Ki [4]: 30 nM | Ki [5]: 49 nM | Ki [6]: 480 nM | Ki [7]: > 10000 nM

Compound: CCOC(=O)c1ncc2[nH]c3ccc(OCc4ccccc4)cc3c2c1COC
IC50 [2]: 0.5 nM | Ki [3]: 4 nM | Ki [4]: 4 nM | Ki [5]: 6 nM | Ki [6]: 5 nM | Ki [7]: > 1000 nM

IC50 [1]: 3 nM
Compound: O=C1C2Cc3c([nH]c4ccccc34)C(c3ccc4c(c3)OCO4)N2C(=O)CN1Cc1ccccc1 (stereo unspecified)

IC50 [1]: 0.8 nM
Compound: Cn1ccnc1CN1CC[C@@H](N2CC(=O)N3[C@H](c4ccc5c(c4)OCO5)c4[nH]c5ccccc5c4C[C@@H]3C2=O)C1

Compound: COc1ccc2c(c1)[nH]c1c(C(C)=O)nccc12 [ARENARINE C]
IC50 (Acetylcholinesterase): 4000 nM | IC50 (Cholinesterase): 27000 nM

Compound: CCOC(=O)c1ncc2[nH]c3ccccc3c2c1COC
IC50 [2]: 0.5 nM | Ki [3]: 0.6 nM | Ki [4]: 3 nM | Ki [5]: 5 nM | Ki [6]: 10 nM | Ki [7]: 1200 nM

IC50 [1]: 40 nM
Compound: CCCCN1C(=O)[C@@H]2Cc3c([nH]c4ccccc34)[C@@H](c3ccc(Br)cc3)N2C1=O

Compound: COc1ccc(-[n+]2ccc3c4ccccc4n(C)c3c2)cc1
IC50 (Acetylcholinesterase): 300 nM | IC50 (Cholinesterase): 32000 nM and 116000 nM

Compound: CCOC(=O)c1nc(C)c2[nH]c3cc(OC)c(OC)cc3c2c1CC
Ki [3]: 6 nM | Ki [4]: 19 nM | Ki [5]: 4 nM | Ki [6]: 3 nM | Ki [7]: 75 nM

IC50 [1]: 3 nM
Compound: CC(C)N1CC(=O)N2C(Cc3c([nH]c4ccccc34)C2c2ccc3c(c2)OCO3)C1=O (stereo unspecified)

IC50 [1]: 3 nM
Compound: O=C1C2Cc3c([nH]c4ccccc34)C(c3ccc4c(c3)OCO4)N2C(=O)CN1C1CCCCC1 (stereo unspecified)

IC50 [1]: 2 nM
Compound: O=C1[C@H]2Cc3c([nH]c4ccccc34)[C@@H](c3ccc4c(c3)OCO4)N2C(=O)CN1[C@@H]1CCN(Cc2cccnc2)C1

Compound: O=c1c2cc(NS(=O)(=O)c3ccccc3OC(F)(F)F)ccc2cc2n1CCc1c-2[nH]c2ccccc12
IC50 (Cholinesterase): 3600 nM

IC50 [1]: 2700 nM
Compound: COC(=O)[C@@H]1Cc2c([nH]c3ccccc23)[C@@H](c2ccc(Cl)cc2)N1C(=O)CCl

Compound: S=C=Nc1cc2c(cn1)[nH]c1ccccc12
IC50 [2]: 3 nM | Ki [3]: 5 nM

IC50 [1]: 3 nM
Compound: CCCCN1CC(=O)N2C(Cc3c([nH]c4ccccc34)C2c2ccc3c(c2)OCO3)C1=O (stereo unspecified)

Compound: CCOC(=O)c1cc2c(cn1)[nH]c1ccccc12
Ki [3]: 1 nM

IC50 [1]: 0.8 nM
Compound: O=C1[C@H]2Cc3c([nH]c4ccccc34)[C@@H](c3ccc4c(c3)OCO4)N2C(=O)CN1[C@@H]1CCN(Cc2ncc[nH]2)C1

IC50 [1]: 10 nM
Compound: CCCCN1CC(=O)N2[C@H](c3ccc(Br)cc3)c3[nH]c4ccccc4c3C[C@H]2C1=O

Compound: CCOC(=O)c1ncc2[nH]c3ccc(O)cc3c2c1COC
IC50 [2]: 0.5 nM | Ki [3]: 2 nM | Ki [4]: 5 nM | Ki [5]: 11 nM | Ki [6]: 19 nM | Ki [7]: 3000 nM

Compound: COc1ccc2c3ccnc(C)c3n(CC3CC(c4ccccc4)=NO3)c2c1 (stereo unspecified)
IC50 (Acetylcholinesterase): 11000 nM

IC50 [1]: 60 nM
Compound: CCCCN1CC2Cc3c([nH]c4ccccc34)C(c3ccc4c(c3)OCO4)N2C1=O (stereo unspecified)

Compound: CCCOc1ccc2[nH]c3cnc(C(=O)OCC)c(COC)c3c2c1
IC50 [2]: 0.5 nM | Ki [3]: 0.5 nM | Ki [4]: 1 nM | Ki [5]: 2 nM | Ki [6]: 2 nM | Ki [7]: 1300 nM

From ChEMBL document CHEMBL5233266, “β-Carboline as a Privileged Scaffold for Multitarget Strategies in Alzheimer's Disease Therapy” (J Med Chem, 2021)
